Patent publication US20230270692A1, “COMPOUNDS FOR CHRONIC DISORDERS” (Pillai Universal LLC, priority 2020, published 2023)

What was measured:
[1] = Pharmacokinetics and tissue distribution in nude mouse; assay type: in vivo
Protocol: The pharmacokinetics and toxicity of Compound I was studied in vivo in a nude mouse model.
Tissue-to-plasma ratios were taken of Compound I in animals at 1, 2, 4, 24 h after administration. At 60 min, the highest levels of Compound I were found in the lungs, brain, stomach, liver, mammary gland, and small intestine, all of which are highly perfused organs followed by spleen and heart. Up to 72 h, Compound I was detected in most organs, but not in the femur and kidney. The ratios in most organs continued to increase up to 4 h. […] There was no change in body weight monitored for a 7-day period after drug administrations.
As explained above, a pharmacokinetic study investigated the concentrations of Compound I at different time intervals after either oral administration or intravenous injection. […] In the gastrointestinal tract, a significant amount of Compound I accumulated in the stomach, implying that Compound I may be absorbed through stomach tissue and distributed throughout the body. […] Collectively, our current findings will provide a more complete understanding of the biological actions of Compound I in vivo.

in vitro = conditions: African green monkey
HUMSCs = assay: Neuronal differentiation of human umbilical cord stem cells; assay type: cell-based
Protocol: After treatment at 72 h, the ratio of neuron-like cells reached high, with the cell bodies contracted and the protuberances lengthened further. The MSCs retained this morphology for the duration of the induction.

SARS-CoV-2 = assay type: in vivo; conditions: PO 250 mg B.I.D. over 7 days
[2] = 28-day oral sub-chronic toxicity (OECD 408); assay type: in vivo
Protocol: […] […] Rats in control groups were administrated orally with the same volume of distilled water (vehicle). During the experimental period, the body weights of all groups were measured once a week. Animals were also visually observed for mortality, changes in behavioral patterns, changes in physical appearance, and symptoms of illness. […] Blood samples were collected for the measurement of hematological (EDTA-2K coated tubes) and biochemical (dry tubes) parameters. After euthanasia, the rats were sacrificed and organs were removed for necropsy, organ weight measurement, and histopathological examination.
Urinalysis: On the last week of the treatment period, a urine test was conducted in all rat groups. Fresh urine was collected overnight from all animals, to determine specific gravity, pH, levels of leukocytes, nitrites, protein, glucose, ketones, blood, urobilinogen, and bilirubin. Urine samples were analyzed using an automatic urine analyzer and test strips.
Hematology and serum biochemistry: For the hematological investigation, all animals fasted overnight but were allowed access to water ad libitum. The rats were then anesthetized, and blood samples were collected from the abdominal aorta. Whole blood was collected in EDTA tubes (containing potassium salt of ethylenediamine-tetracetic acid) and processed immediately for hematological analysis. The parameters measured were red blood cell count (RBC), hematocrit (HCT), hemoglobin (HGB), mean corpuscular volume (MCV), mean corpuscular hemoglobin concentration (MCHC), mean corpuscular hemoglobin (MCH), white blood cell count (WBC), neutrophils (NEU), eosinophils (EOS), basophils (BASO), lymphocytes (LYM), and monocytes (MONO). The hematological analysis was performed using an automatic hematological analyzer. For the measurement of biochemical parameters, dry tubes containing collected blood were centrifuged at 3000 rpm at 5° C. for 15 min to obtain the serum. Serum samples were analyzed using an automated biochemistry analyzer. The clinical biochemistry parameters included, total serum protein (TP), albumin (ALB), total bilirubin (T-BIL), alkaline phosphatase (ALP), alanine aminotransferase (ALT), aspartate aminotransferase (AST), uric acid (URIC), urea (UREA), creatinine (CREA), low-density lipoprotein-cholesterol (LDL-C), high-density lipoprotein-cholesterol (HDL-C), total cholesterol (TC), triglycerides (TG), and glucose (GLU). Serum electrolytes such as calcium (Ca2+), sodium (Nat), potassium (K^+), and chloride (CF) were also determined.
Necropsy and organ weight: All groups of rats were subjected to gross necropsy, which included the examination of the thoracic organs, external surface, and all of the internal organs. Vital organs were carefully examined macroscopically for any type of abnormalities. Thereafter, various organs, including the heart, liver, kidneys, stomach, lung, spleen, adrenals, thymus, epididymis, testes, uterus, and ovaries were surgically removed, cleaned with ice-cold saline solution, placed on absorbent papers, and then weighed (absolute organ weight in grams). The relative organ weight (ROW) of each animal was then calculated as follows: ROW=[Absolute organ weight (g)÷Bodyweight of rat on sacrifice day (g)]×100.
Histopathology: The major organs (lung, heart, liver, kidney) and reproductive organs (testis and ovary) were removed for histopathological examinations. After weight measurement, the organs were quickly fixed in 10% buffered formalin (pH 7.4). Following fixation, tissue specimens were dehydrated in a graded series of ethanol (70-100%), cleared in toluene, and finally enclosed in paraffin. Thereafter, 5-μm thin sections were prepared using a microtome (Leica) and stained with Haematoxylin and Eosin (H & E) prior to microscopic examination.

[3] = system: cytokines and chemokines in the lungs; assay: Xenograft stage 4 metastasized breast cancer animal model, lung cytokines and pathology; assay type: in vivo
Text: In a xenograft stage 4 metastasized breast cancer animal model, Compound I decreased production of cytokines (tumor necrosis factor alpha [TNF-α] and interleukin-6 [IL6]) and chemokines (CXCL10, CCL2, CCL3, CCL5), and were correlated with migration of Natural Killer cells and macrophages and observed in the lungs.

[4] = system: xenograft nude mice models (triple-negative breast cancer, pancreatic, liver, colon cancer); assay: In vivo metastasis / stage IV tumor studies in xenograft nude mice versus standard drugs; conditions: mice, after 9 months since administration
[5] = treatment group compared to control group

## COc1cc(/C=C/C(=O)/C=C/C=C/c2cc(OC)c(O)c(OC)c2)cc(OC)c1 [Compound I]
[1]; 10 mg/kg IV
  Toxicity: No toxicity was observed
[1]; 1, 2, and 24 h after dosing
  tissue-to plasma ratio in the hippocampus and brain: increased significantly and continuously
[1]; 7-day period after administration
  body weight: no change
[1]; intravenous administration
  tissue distribution: widely distributed in several tissues
[1]; mouse, in vivo
  absorbed or distributed to the vital organs: approximately 98%
  excreted in either urine or feces: less than 2%
[1]; not in the femur and kidney
  time Compound I was detected in most organs: Up to 72 h
[1]; throughout the study period
  signs of discomfort, cardiovascular or respiratory disorders: No signs of discomfort or any cardiovascular or respiratory disorders were observed
[1]; [5]
  increase in the area under the curve (AUC): 28 fold
  increase in the maximum plasma concentration (Cmax): 29 fold
In vitro
  CC50: > 15 µM
HUMSCs
  Neuronal cell type formation: induced
SARS-CoV-2
  time to decrease of overactivated cytokine-secreting immune cells: 3 to 5 days
  time to improved pulmonary function and symptoms: 4 to 5 days
[2]; 200, 500, 1000 and 2000 mg/kg, both sexes
  plasma levels of AST, ALT, ALP activities: insignificant changes
[2]; 28 d, P>0.05 vs control
  food and water intakes: no significant changes
[2]; acute and subacute toxicity groups
  body weight: did not elicit any deleterious effect on body weight
[2]; all doses, both sexes
  level of creatinine, electrolytes, urea or uric acid: no significant difference
[2]; any of the doses
  WBC count and subtypes: did not cause any significant changes
[2]; compared to the control group
  hematological parameters (WBC, RBC, PCV, hemoglobin): not significantly altered
[2]; female rats
  histopathology: liver: almost normal cellular architecture with normal hepataocytes
[2]; liver, brain, kidney, heart, spleen
  Relative organ weight (ROW): did not elicit any adverse effects to the vital organs
[2]; male and female rats
  histopathology: heart: appeared normal
  histopathology: kidney: almost normal size and shape of glomeruli, tubules, intestinum and blood vesicles
  histopathology: lungs: no lymphocytic infiltrations were observed
  histopathology: pancreas: almost no abnormalities were observed
  histopathology: stomach: normal cellular architecture
[2]; male rats
  histopathology: liver: normal hepatocytes along with normal portal triads, sinusoidal spaces and central venous system
[2]; rat, in vivo
  histopathology: reproductive organs (testis, ovary): normal pathology
  levels of total protein, albumin, conjugated bilirubin and bilirubin: no significant difference
[2]; subacute, 28-day, both sexes
  treatment related death: no treatment related death was observed
[3]; by day 7
  lung histopathology: normal lung pathology without any pneumonitis observed
[3]; in vivo
  production of cytokines (TNF-α, IL6) and chemokines (CXCL10, CCL2, CCL3, CCL5): decreased
[4]
  relapse of disease: no relapse of disease
